# Reference: patent US20150148551A1, “GENISTEIN FOR REDUCING LEVELS OF STORAGE COMPOUNDS IN THE TREATMENT AND/OR PREVENTION OF LYSOSOMAL STORAGE DISEASES (LSDS)” (3G THERAPEUTICS, INC., priority 2012, published 2015)
# How the values were obtained:
# Assay type in all cases: cell-based, human
# NPC1 = assay: DNA microarray, NPC1 expression in fibroblasts exposed to genistein; conditions: for NPC1 fold change Average: 48 h vs DMSO
# Method: (§1) The experiments were conducted to characterise the transcriptomic profile of human fibroblast cells exposed to genistein, and in particular to determine the expression of genes encoding lysosomal enzymes involved in metabolism (i.e. synthesis and degradation) of organic substances. The absence or deficiency of these enzymes' activity is responsible for occurrence of various lysosomal storage diseases (LSD) (including MPS). The tested hypothesis assumed that genistein influences the expression of many genes, among which there are genes coding for enzymes required in metabolism of compounds, which are pathologically stored in LSD. The results provide important information regarding genistein action on the molecular level within the range of gene expression modulation by this substance. The experiment was conducted in biological quintuplicates. Human dermal fibroblasts (HDFa) were exposed in vitro for 1, 24 or 48 hours to: 30, 60 or 100 μM of genistein; 0.05% DMSO (K1); or were untreated (control cells) (K2), and total RNA was isolated and analysed.
# (§2) Fibroblast cells were grown in Dulbecco (DMEM) medium supplemented with 10% fetal bovine serum (FBS) with the addition of 1% antibiotics and anti-fungal agents at 37° C. in humidified atmosphere of 5% CO2, until the required confluency was obtained.
# (§3) To determine the effect of tested compound on the transcriptom of the fibroblast cells, the growth medium was replaced with fresh medium, either non-supplemented (0.05% DMSO), or containing genistein (30, 60 or 100 μM, in 0.05% DMSO). The exposure was done for 1, 24 or 48 hours.
# (§4) Total RNA was isolated from fibroblasts using High Pure RNA Isolation Kit according to the protocol and then it was quantitatively evaluated using Quant-It™ RiboGreen® Assay Kit.
# (§5) Biotinylated cRNA was prepared using Ambion Total PrepAmp Kit for Illumina arrays.
# (§6) Standard hybridization and quantitative image analysis procedures—Illumina hybridization protocol and Illumina scanning protocol, were used.
# (§7) Processing of the results was done during data definition, including: background correction (using background subtraction method), normalization (using quantile normalization algorithm with Illumina GenomeStudio software package: gene expression module version 1.9.0) and summarization (using method, which sums the values of signal intensities from a set of probes).
# GM2A = assay: DNA microarray, GM2A expression in fibroblasts exposed to genistein; conditions: for GM2A fold change Average: 48 h vs DMSO
# Method: as §1, §2, §3, §4, §5, §6, §7
# CTNS = assay: DNA microarray, CTNS expression in fibroblasts exposed to genistein; conditions: for CTNS fold change Average: 48 h vs DMSO
# Method: as §1, §2, §3, §4, §5, §6, §7
# FVT1 = assay: DNA microarray, FVT1 expression in fibroblasts exposed to genistein; conditions: for FVT1 fold change Average: 48 h vs DMSO
# Method: as §1, §2, §3, §4, §5, §6, §7
# ACP5 = assay: DNA microarray, ACP5 expression in fibroblasts exposed to genistein; conditions: for ACP5 fold change Average: 48 h vs DMSO
# Method: as §1, §2, §3, §4, §5, §6, §7
# AGA = assay: DNA microarray, AGA expression in fibroblasts exposed to genistein; conditions: for AGA fold change Average: 48 h vs DMSO
# Method: as §1, §2, §3, §4, §5, §6, §7
# CTSO = assay: DNA microarray, CTSO expression in fibroblasts exposed to genistein; conditions: for CTSO fold change Average: 48 h vs DMSO
# Method: as §1, §2, §3, §4, §5, §6, §7
# ASAH1 = assay: DNA microarray, ASAH1 expression in fibroblasts exposed to genistein; conditions: 30 μM
# Method: as §1, §2, §3, §4, §5, §6, §7
smiles,measurement,setting,value
"O=c1c(-c2ccc(O)cc2)coc2cc(O)cc(O)c12 [genistein, 4′,5,7-trihydroxy-3-phenylchromen-4-one]",NPC1 fold change Average 1h30/1hK1,"NPC1; 30 μM, 1 h vs 0.05% DMSO",0.9973 fold change
same,NPC1 fold change Average,NPC1; 30 μM,1.567 fold change
same,NPC1 fold change Average 1h60/1hK1,"NPC1; 60 μM, 1 h vs 0.05% DMSO",1.035 fold change
same,NPC1 fold change Average,NPC1; 60 μM,1.875 fold change
same,NPC1 fold change Average 1h100/1hK1,"NPC1; 100 μM, 1 h vs 0.05% DMSO",0.9825 fold change
same,NPC1 fold change Average,NPC1; 100 μM,2.269 fold change
same,GM2A fold change Average 1h30/1hK1,"GM2A; 30 μM, 1 h vs 0.05% DMSO",1.5655 fold change
same,GM2A fold change Average,GM2A; 30 μM,1.0452 fold change
same,GM2A fold change Average 1h60/1hK1,"GM2A; 60 μM, 1 h vs 0.05% DMSO",1.181 fold change
same,GM2A fold change Average,GM2A; 60 μM,1.612 fold change
same,GM2A fold change Average 1h100/1hK1,"GM2A; 100 μM, 1 h vs 0.05% DMSO",1.254 fold change
same,GM2A fold change Average,GM2A; 100 μM,1.536 fold change
same,CTNS fold change Average 1h30/1hK1,"CTNS; 30 μM, 1 h vs 0.05% DMSO",1.0024 fold change
same,CTNS fold change Average,CTNS; 30 μM,1.5216 fold change
same,CTNS fold change Average 1h60/1hK1,"CTNS; 60 μM, 1 h vs 0.05% DMSO",0.7997 fold change
same,CTNS fold change Average,CTNS; 60 μM,1.577 fold change
same,CTNS fold change Average 1h100/1hK1,"CTNS; 100 μM, 1 h vs 0.05% DMSO",0.7964 fold change
same,CTNS fold change Average,CTNS; 100 μM,1.64 fold change
same,FVT1 fold change Average 1h30/1hK1,"FVT1; 30 μM, 1 h vs 0.05% DMSO",1.0953 fold change
same,FVT1 fold change Average,FVT1; 30 μM,1.2441 fold change
same,FVT1 fold change Average 1h60/1hK1,"FVT1; 60 μM, 1 h vs 0.05% DMSO",1.137 fold change
same,FVT1 fold change Average,FVT1; 60 μM,1.603 fold change
same,FVT1 fold change Average 1h100/1hK1,"FVT1; 100 μM, 1 h vs 0.05% DMSO",1.035 fold change
same,FVT1 fold change Average,FVT1; 100 μM,1.422 fold change
same,ACP5 fold change Average 1h30/1hK1,"ACP5; 30 μM, 1 h vs 0.05% DMSO",0.9865 fold change
same,ACP5 fold change Average,ACP5; 30 μM,1.6259 fold change
same,ACP5 fold change Average 1h60/1hK1,"ACP5; 60 μM, 1 h vs 0.05% DMSO",1.066 fold change
same,ACP5 fold change Average,ACP5; 60 μM,1.7507 fold change
same,ACP5 fold change Average 1h100/1hK1,"ACP5; 100 μM, 1 h vs 0.05% DMSO",1.141 fold change
same,ACP5 fold change Average,ACP5; 100 μM,1.763 fold change
same,AGA fold change Average 1h30/1hK1,"AGA; 30 μM, 1 h vs 0.05% DMSO",1.0395 fold change
same,AGA fold change Average,AGA; 30 μM,1.3732 fold change
same,AGA fold change Average 1h60/1hK1,"AGA; 60 μM, 1 h vs 0.05% DMSO",0.9753 fold change
same,AGA fold change Average,AGA; 60 μM,1.864 fold change
same,AGA fold change Average 1h100/1hK1,"AGA; 100 μM, 1 h vs 0.05% DMSO",0.9749 fold change
same,AGA fold change Average,AGA; 100 μM,2.33 fold change
same,CTSO fold change Average 1h30/1hK1,"CTSO; 30 μM, 1 h vs 0.05% DMSO",0.9973 fold change
same,CTSO fold change Average,CTSO; 30 μM,1.2507 fold change
same,CTSO fold change Average 1h60/1hK1,"CTSO; 60 μM, 1 h vs 0.05% DMSO",1 fold change
same,CTSO fold change Average,CTSO; 60 μM,1.276 fold change
same,CTSO fold change Average 1h100/1hK1,"CTSO; 100 μM, 1 h vs 0.05% DMSO",1.07 fold change
same,CTSO fold change Average,CTSO; 100 μM,1.471 fold change
same,ASAH1 fold change Average 1h30/1hK1,ASAH1; 1 h vs 0.05% DMSO,1.1419 fold change
same,ASAH1 fold change Average,ASAH1; 48 h vs DMSO,1.0802 fold change
